{
  "source": "patent US20220096371A1",
  "about": "“BIODEGRADABLE MICRONEEDLE SYSTEM WITH SUSTAINED RELEASE” (University of Connecticut, priority 2020, published 2022)",
  "origin": "cited, not measured here",
  "key": {"[1]": {"details": "81 mg ASA oral pill, by HPLC, used as target for MN system"}},
  "data": [
    {"smiles": "CC(=O)Oc1ccccc1C(=O)O", "note": "[ASA, acetylsalicylic acid]", "values": [
      {"measurement": "ACU (area under the curve)", "setting": "[1]", "value": "~865", "unit": "ng/ml.hr"},
      {"measurement": "average daily plasma concentration", "setting": "[1]", "value": "~100", "unit": "ng/mL"},
      {"measurement": "bioavailability", "setting": "oral use", "value": "~20", "unit": "%"}
    ]}
  ]
}
